Results from PubChem BioAssay AID2060601 (Molecular Pharmacology Branch, DTP, NCI, 2025).

System: 874868-142-R-J2-PDC complex spheroids, growth % test/control
Assay: Anticancer human tumor 874868-142-R-J2-PDC patient-derived head and neck squamous carcinoma cell line growth inhibition [CLK]
Details: for IC50: curve of first compound; for viability, T/C: stronger effect = lower value
From the text: A high-throughput screen of multi-cell type tumor spheroids was designed to identify active combinations of […] and targeted small molecules. Complex spheroids include a stromal component modeled by human endothelial cells (HUVEC) and fibroblasts modeled by human mesenchymal stem cells (MSCs). The concentration ranges selected for each drug and investigational agent were based upon clinically achievable concentrations if the clinical Cmax of the agent was known.
Compounds. The drugs and investigational agents: cirtuvivint (SM08502; NSC835563), CC-671 (NSC850746), vemurafenib (NSC761431), tapotoclax (NSC804041), sotorasib (NSC818433), adagrasib (NSC831453), MRTX-1133 (NSC836407), BAY2416964 (NSC825713), copanlisib (NSC816437), inavolisib (NSC800729), abemaciclib (NSC768073), osimertinib (NSC779217), entinostat (NSC756642), eltanexor (KPT-8602, NSC794443), venetoclax (NSC766270), ceralasertib (NSC777638), bortezomib (NSC756655), olaparib (NSC753686), talazoparib (NSC767125), alisertib (NSC759677), peposertib (NSC802822), gemcitabine (NSC613327), 5-fluorouracil (NSC19893), SN-38 (NSC673596), oxaliplatin (NSC266046), paclitaxel (NSC125973), and doxorubicin (NSC123127), were obtained from the National Cancer Institute (NCI) Developmental Therapeutics Program Chemical Repository. The FDA-approved anticancer drug set is available from the Developmental Therapeutics Program at https://dtp.cancer.gov/organization/dscb/obtaining/available plates.htm. […] The stock solutions were prepared in dimethyl sulfoxide (DMSO, Sigma-Aldrich, St. Louis, MO, cat. D2650), except for the platinum complexes which were prepared in saline (Quality Biological, Gaithersburg, MD, cat. 114-055-101), at 800-fold the tested concentration and stored at -70 degrees C prior to their use. All drugs and investigational agents were tested over a range starting from a high concentration at or near the clinical Cmax and decreasing in half-log increments. If the clinical Cmax for an agent had not been determined, the highest concentration tested was 10 microM.
Cell Culture. All cells were maintained in an incubator at 37 degrees C and 5% CO2 with 95% humidity. The PDC lines were cultured according to standard operating procedures established by the NCI PDMR. Briefly, all PDCs were thawed and cultured in Matrigel-coated flasks prepared with a working solution of 1X Ham's F-12 nutrient mix, without supplementation (Invitrogen, Waltham, MA, cat. 11765054), 100 U/mL penicillin-streptomycin (Invitrogen, cat. 15140122), and 2.5% Matrigel (Corning Inc., Corning, NY, cat. 354248) for the first three passages. The 947758-054-R-J2-PDC line was cultured in 6B/Colon 1A media, which includes advanced DMEM/F-12 (Thermo Fisher Scientific, cat. 12634028), 10 mM HEPES (Thermo Fisher Scientific, cat. 15630080), 1X GlutaMAX supplement (Thermo Fisher Scientific, cat. 35050061), 0.1 mg/mL primocin (InvivoGen, cat. ant-pm-2), 10% defined fetal bovine serum, heat inactivated (HyClone Laboratories Inc., cat. SH30070.03HI), 1.25 mM N-Acetyl-L-cysteine (Sigma-Aldrich, cat. A9165), 10 mM nicotinamide (Sigma-Aldrich, cat. N0636), 1X B-27 supplement (Thermo Fisher Scientific, cat. 17504044), 1X N-2 supplement (Thermo Fisher Scientific, cat. 17502048), and 10 microM Y-27632 dihydrochloride (Tocris Bioscience, cat. 1254). The 876862-298-R-J1-PDC was cultured in 6E media, which includes all 6B/Colon 1A media components plus 50% L-WRN conditioned media (ATCC, cat. CRL-3276), 50 ng/mL recombinant human EGF recombinant protein (hEGF; Thermo Fisher Scientific, cat. PHG0311), 10 ng/mL recombinant human fibroblast growth factor 10 (hGFG-10; PeproTech, cat. 100-26), 1 ng/mL recombinant human fibroblast growth factor 2 (hFGF-2; PeproTech, cat. 100-18B), and 1 µM prostaglandin E2 (PGE2; Tocris, cat. 2296). The 227483-062-R1-J1-PDC line was cultured in Panc media, containing all 6E components except hFGF-2, with the addition of 500 nM SB-431542 (Selleckchem, cat. S1067) and 10 nM gastrin (Tocris, cat. 3006). […]

[1] = second compound 0.0316 µM, first compound 0.0316 µM
[2] = second compound 0.0316 µM, first compound 0.1 µM
[3] = second compound 0.0316 µM, first compound 0.316 µM
[4] = second compound 0.0316 µM, first compound 1 µM
[5] = second compound 0.0316 µM, first compound 3.16 µM
[6] = second compound 0.0316 µM, first compound 10 µM
[7] = second compound 0.1 µM, first compound 0.0316 µM
[8] = second compound 0.1 µM, first compound 0.1 µM
[9] = second compound 0.1 µM, first compound 0.316 µM
[10] = second compound 0.1 µM, first compound 1 µM
[11] = second compound 0.1 µM, first compound 3.16 µM
[12] = second compound 0.1 µM, first compound 10 µM
[13] = second compound 0.316 µM, first compound 0.0316 µM
[14] = second compound 0.316 µM, first compound 0.1 µM
[15] = second compound 0.316 µM, first compound 0.316 µM
[16] = second compound 0.316 µM, first compound 1 µM
[17] = second compound 0.316 µM, first compound 3.16 µM
[18] = second compound 0.316 µM, first compound 10 µM
[19] = second compound 1 µM, first compound 0.0316 µM
[20] = second compound 1 µM, first compound 0.1 µM
[21] = second compound 1 µM, first compound 0.316 µM
[22] = second compound 1 µM, first compound 1 µM
[23] = second compound 1 µM, first compound 3.16 µM
[24] = second compound 1 µM, first compound 10 µM
[25] = second compound 3.16 µM, first compound 0.0316 µM
[26] = second compound 3.16 µM, first compound 0.1 µM
[27] = second compound 3.16 µM, first compound 0.316 µM
[28] = second compound 3.16 µM, first compound 1 µM
[29] = second compound 3.16 µM, first compound 3.16 µM
[30] = second compound 3.16 µM, first compound 10 µM
[31] = second compound 10 µM, first compound 0.0316 µM
[32] = second compound 10 µM, first compound 0.1 µM
[33] = second compound 10 µM, first compound 0.316 µM
[34] = second compound 10 µM, first compound 1 µM
[35] = second compound 10 µM, first compound 3.16 µM
[36] = second compound 10 µM, first compound 10 µM
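Further: spheroids exposed to the compounds for 7 days.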

Question: With CCCS(=O)(=O)Nc1ccc(F)c(C(=O)c2c[nH]c3ncc(-c4ccc(Cl)cc4)cc23)c1F + CN1CCN(c2cc(C(=O)Nc3cc4cc(-c5cnn(C)c5)ccc4cn3)ccn2)CC1 as the molecule, how does the IC50 (second compound 0.0316 µM) read?
Answer: > 10000 nM

Question: And the IC50 (second compound 0.1 µM)?
Answer: > 10000 nM

Question: What about the IC50 (second compound 0.316 µM) of the same molecule?
Answer: < 31.6 nM

Question: And the IC50 (second compound 1 µM)?
Answer: < 31.6 nM

Question: And the IC50 (second compound 3.16 µM)?
Answer: < 31.6 nM

Question: And the IC50 (second compound 10 µM)?
Answer: < 31.6 nM

Question: And the viability, T/C [1]?
Answer: 99.5%

Question: What about the viability, T/C [2] of the same molecule?
Answer: 95.3%

Question: And the viability, T/C [3]?
Answer: 97.4%

Question: What about the viability, T/C [4] of the same molecule?
Answer: 120%

Question: What about the viability, T/C [5] of the same molecule?
Answer: 104%

Question: What about the viability, T/C [6] of the same molecule?
Answer: 88.4%

Question: What about the viability, T/C [7] of the same molecule?
Answer: 71.4%

Question: And the viability, T/C [8]?
Answer: 82.1%

Question: What about the viability, T/C [9] of the same molecule?
Answer: 101%

Question: What about the viability, T/C [10] of the same molecule?
Answer: 103%

Question: And the viability, T/C [11]?
Answer: 99.2%

Question: And the viability, T/C [12]?
Answer: 67.2%

Question: And the viability, T/C [13]?
Answer: 21.1%

Question: What about the viability, T/C [14] of the same molecule?
Answer: 18.1%

Question: And the viability, T/C [15]?
Answer: 16%

Question: What about the viability, T/C [16] of the same molecule?
Answer: 14.8%

Question: And the viability, T/C [17]?
Answer: 20.2%

Question: And the viability, T/C [18]?
Answer: 17.8%

Question: And the viability, T/C [19]?
Answer: 0.34%

Question: What about the viability, T/C [20] of the same molecule?
Answer: 0.78%

Question: What about the viability, T/C [21] of the same molecule?
Answer: 0.38%

Question: And the viability, T/C [22]?
Answer: 0.32%

Question: And the viability, T/C [23]?
Answer: 0.26%

Question: And the viability, T/C [24]?
Answer: 3.04%

Question: What about the viability, T/C [25] of the same molecule?
Answer: 0.22%

Question: And the viability, T/C [26]?
Answer: 3.25%

Question: What about the viability, T/C [27] of the same molecule?
Answer: 0.32%

Question: And the viability, T/C [28]?
Answer: 0.24%

Question: And the viability, T/C [29]?
Answer: 0.3%

Question: What about the viability, T/C [30] of the same molecule?
Answer: 2.5%

Question: And the viability, T/C [31]?
Answer: 0.34%

Question: And the viability, T/C [32]?
Answer: 0.84%

Question: What about the viability, T/C [33] of the same molecule?
Answer: 0.18%

Question: What about the viability, T/C [34] of the same molecule?
Answer: 0.18%

Question: What about the viability, T/C [35] of the same molecule?
Answer: 0.19%

Question: And the viability, T/C [36]?
Answer: 2%

Question: What does the source list for COC1C=CCC(C)C(C)S(=O)(=O)NC(=O)c2ccc3c(c2)N(CC2CCC21)CC1(CCCc2cc(Cl)ccc21)CO3 (centres undefined) + CN1CCN(c2cc(C(=O)Nc3cc4cc(-c5cnn(C)c5)ccc4cn3)ccn2)CC1?
Answer: IC50 (second compound 0.0316 µM): 1390 nM; IC50 (second compound 0.1 µM): 1150 nM; IC50 (second compound 0.316 µM): < 31.6 nM; IC50 (second compound 1 µM): < 31.6 nM; IC50 (second compound 3.16 µM): < 31.6 nM; IC50 (second compound 10 µM): < 31.6 nM; viability, T/C [1]: 101%; viability, T/C [2]: 93.2%; viability, T/C [3]: 66.2%; viability, T/C [4]: 60.8%; viability, T/C [5]: 34.7%; viability, T/C [6]: 18.2%; viability, T/C [7]: 77.1%; viability, T/C [8]: 74.3%; viability, T/C [9]: 65.2%; viability, T/C [10]: 56.1%; viability, T/C [11]: 15.2%; viability, T/C [12]: 8.09%; viability, T/C [13]: 21.6%; viability, T/C [14]: 14.9%; viability, T/C [15]: 11.8%; viability, T/C [16]: 6.03%; viability, T/C [17]: 6.07%; viability, T/C [18]: 5.99%; viability, T/C [19]: 0.48%; viability, T/C [20]: 0.33%; viability, T/C [21]: 1.14%; viability, T/C [22]: 0.2%; viability, T/C [23]: 2.7%; viability, T/C [24]: 1.73%; viability, T/C [25]: 0.85%; viability, T/C [26]: 0.74%; viability, T/C [27]: 0.27%; viability, T/C [28]: 0.44%; viability, T/C [29]: 0.33%; viability, T/C [30]: 1.12%; viability, T/C [31]: 0.79%; viability, T/C [32]: 0.24%; viability, T/C [33]: 0.61%; viability, T/C [34]: 0.22%; viability, T/C [35]: 1.51%; viability, T/C [36]: 0.24%
